Data on six molecules can be found in US8466291B2, “1,5-dideoxy-1,5-imino-D-glucitol compounds” (Academia Sinica, priority 2008, dated 2013).

In assay [1] the target is T1, O-GlcNAcase in human 293T cells (Homo sapiens, UniProt O60502).
T1 construct: endogenous in cells; host or cells: 293T cells
T1 sequence (O60502 1-916): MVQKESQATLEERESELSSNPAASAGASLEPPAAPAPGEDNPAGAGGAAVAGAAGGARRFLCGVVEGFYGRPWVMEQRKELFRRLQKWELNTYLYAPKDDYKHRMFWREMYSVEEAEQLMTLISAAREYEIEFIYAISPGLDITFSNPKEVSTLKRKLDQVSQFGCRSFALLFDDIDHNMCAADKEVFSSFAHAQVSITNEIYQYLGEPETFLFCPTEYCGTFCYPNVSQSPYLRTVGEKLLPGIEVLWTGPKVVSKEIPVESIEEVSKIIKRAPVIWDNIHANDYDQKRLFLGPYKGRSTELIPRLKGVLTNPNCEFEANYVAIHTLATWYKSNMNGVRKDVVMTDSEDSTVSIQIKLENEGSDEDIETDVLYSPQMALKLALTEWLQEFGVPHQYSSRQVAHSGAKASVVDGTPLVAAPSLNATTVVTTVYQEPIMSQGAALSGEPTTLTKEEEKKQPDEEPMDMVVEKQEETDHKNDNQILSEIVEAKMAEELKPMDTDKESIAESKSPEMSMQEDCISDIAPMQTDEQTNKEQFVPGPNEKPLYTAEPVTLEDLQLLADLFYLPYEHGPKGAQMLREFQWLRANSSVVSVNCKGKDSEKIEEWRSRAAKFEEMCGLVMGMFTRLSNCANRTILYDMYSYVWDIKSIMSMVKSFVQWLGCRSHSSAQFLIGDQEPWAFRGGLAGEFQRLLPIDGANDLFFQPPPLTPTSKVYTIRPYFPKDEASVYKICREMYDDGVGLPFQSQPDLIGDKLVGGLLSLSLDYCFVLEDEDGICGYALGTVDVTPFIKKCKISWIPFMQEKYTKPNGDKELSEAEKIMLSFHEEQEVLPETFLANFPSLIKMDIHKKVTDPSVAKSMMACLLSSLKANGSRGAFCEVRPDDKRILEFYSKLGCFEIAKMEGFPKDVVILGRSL
Put plainly: Level of protein-associated O-GlcNAc in treated 293T cells by Western blot. The class given is cell-based. As to conditions: 10 μM, 16 hours, Western blot with anti-O-GlcNAc antibody, versus un-treated cells. How it is done: Additionally, Compounds 1 and 3 were tested to determine their inhibitory effects on O-GlcNAcase in human 293T cells. The cells were treated with 10 μM Compound 1 or 3 for 16 hours. The level of protein-associated O-GlcNAc moieties in the treated cells was determined by Western blot analysis using an anti-O-GlcNAc antibody. See Macauley et al., J. Biol. Chem. 2005, 280, 25313-25322. Two known O-GlcNAcase inhibitors, PUGNAc (10 μM) and STZ (10 μM), were used as positive controls (Hanover et al., Arch Biochem. Biophys. 1999, 362, 38-45 and Rao et al., EMBO J. 2006, 25, 1569-1578).
In general terms: In western blotting, separated proteins are transferred to a membrane and probed.

The next assay has as its system BV2 cells. Nature of the assay: GM2 ganglioside level in BV2 cells by high performance thin-layer chromatography. The following applies: 200 nM, 10 days, HPTLC. The class given is cell-based, mouse. The protocol: Glycosphingolipids (e.g., GM2) were extracted from the treated cells with chloroform/methanol and the ganglioside levels were determined by high performance thin-layer chromatography.

In assay [2] the target is Bacteroids fragilis O-GlcNAcase (Bacteroides fragilis, UniProt Q5L8V6). Nature of the assay: Michaelis-Menten/Lineweaver-Burk kinetic inhibition of O-GlcNAcase with 4MU-NAG substrate. The following applies: for Selectivity (KI O-GlcNAcase/KI HEX): Bacteroids fragilis O-GlcNAcase over human HEX B, Table 1. The class given is biochemical. How it is done:
Bacteroids fragilis O-GlcNAcase, which is highly homologous to human O-GlcNAcase, was prepared as follows. Based on the genome sequence of B. fragilis (NCTC 9343) as disclosed in GenBank accession no. CR626927 (Oct. 23, 2008), a DNA fragment encoding the B. fragilis O-GlcNAcse was amplified via polymerase chain reaction (PCR), using the primers of: 5′-[…]-3′ (SEQ ID NO:1) (forward primer) and 5′-[…]-3′ (SEQ ID NO:2) (reverse primer). The PCR product was cloned into pGEM-T Easy vector (Promega) via cloning sites Nde1 and Xho1 and then subcloned into pET21b vector to produce expression plasmid pOGA, which encodes a fusion protein including O-GlcNAcase and a His6 tag at the C-terminus
Plasmid pOGA was transformed into E. coli BL21 (DE3) cells and a positive transformant was cultured in Luria-Bertani (LB) medium with ampicillin (100 μg/mL) overnight. The E. coli culture, transferred to fresh LB medium, was incubated at 37° C. and, when A600 of the culture reached 0.6, isopropyl-β-D-thiogalactopyranoside (final conc: 250 μM) was added to induce expression of O-GlcNAcse. The induced cells were further cultured at 16° C. overnight, harvested, and disrupted to produce a cell lysate. Upon centrifugation, the supernatant thus obtained was loaded onto a nickel-affinity column. After elution, a fraction containing O-GlcNAcse was collected and the enzyme contained therein was further purified by gel filtration using a Superdex 6 column. See Dennis et al., Nat Struct Mol Biol 2006, 13: 365-71. The purified protein was concentrated using a 10 kDa-cutoff concentrator and dialyzed against 20 mM HEPES (pH 7.5).
The reaction conditions for each enzyme are shown below:
O-GlcNAcase: reaction mixture (0.5 nM O-GlcNAcase (200 μL) in 50 mM citric acid, 100 mM NaCl, 0.1% BSA, 0.05-1.5 mM substrate, pH 4.25) was incubated at 30° C. for 25 minutes. The enzyme activity at different time points was determined by measuring the levels of the fluorescent signals (excitation wavelength: 360 nm; emission wavelength: 460 nm) released from 4-methylumbelliferone, a product of the enzyme reaction.
(§1) In these reactions, the substrate concentrations were three to five fold of the concentration used for determining KM (absent compounds) and the ratio between the enzyme and the compound was 0.1-0.5 nM to 0.3 nM-200 uM. The data thus obtained were analyzed by the Lineweaver-Burk plot. The K1 values were determined by the double reciprocal plot (1/V vs. 1/[S]). More specifically, the Km values for each enzyme in the presence of one of the test compounds first determined and these values were further plotted in view of the concentrations of the compound. K1 was determined by calculating the negative value of the resulting x-intercept. The selectivity of each compound was calculated by the formula: K1 O-GlcNAcase/K1 Hex B.

The next assay deals with T2, Human HEX B (Homo sapiens, UniProt P07686).
T2 construct: Hex B protein (isolated from human placenta) was purchased from Sigma Co; purchased Sigma Co; host or cells: human placenta
Nature of the assay: Michaelis-Menten/Lineweaver-Burk kinetic inhibition of Hex B with 4MU-NAG substrate. The class given is biochemical. How it is done:
Hex B protein (isolated from human placenta) was purchased from Sigma Co.
Both O-GlcNAcase and Hex B were subjected to Michaelis-Menton kinetic analysis to determine the kinetics of their enzymatic activity in the presence of absence of Compounds 1-5 and Compound ix, using 4-methylumbelliferyl-N-acetyl-β-D-glucosaminide (4MU-NAG; purchased from Sigma Co.) as the substrate (a fluorogenic substrate). The reaction conditions for each enzyme are shown below:
Hex B: reaction mixture (0.1 nM Hex B (200 μL), 50 mM NaH2PO4, 100 mM NaCl, 0.1% BSA, 0.05-1.5 mM substrate, pH 6.5) was incubated at 30° C. for 25 minutes. The reaction was terminated by addition of a 3× quenching buffer (200 mM sodium glycine buffer, pH 10.8). The enzyme activity was determined as described above.
as §1, with “To determine the effects of Compounds 1-5 and Compound ix on the kinetics of both enzymes, the enzyme reactions described above were performed in the presence of each compound at different concentrations. In” for “In”

For a further assay, the target named is T3, Human O-GlcNAcase (Homo sapiens, UniProt O60502).
T3 construct: made in house
T3 sequence (O60502 1-916): T1 sequence (O60502 1-916)
Nature of the assay: Inhibition of human O-GlcNAcase. The class given is biochemical. As to conditions: Table 2; for Selectivity (KI O-GlcNAcase/KI HEX): Human O-GlcNAcase over human HEX B; for Ki: Human O-GlcNAcase. The protocol:
Human O-GlcNAcase was also prepared and tested according to the procedures described in Gao et al., J. Biol. Chem. 2001, 276, 9838-9845 and Macauley et al., J. Am. Chem. Soc. 2005, 127, 17202-17203.

Sequence of Bacteroids fragilis O-GlcNAcase (Q5L8V6 entry or part of it): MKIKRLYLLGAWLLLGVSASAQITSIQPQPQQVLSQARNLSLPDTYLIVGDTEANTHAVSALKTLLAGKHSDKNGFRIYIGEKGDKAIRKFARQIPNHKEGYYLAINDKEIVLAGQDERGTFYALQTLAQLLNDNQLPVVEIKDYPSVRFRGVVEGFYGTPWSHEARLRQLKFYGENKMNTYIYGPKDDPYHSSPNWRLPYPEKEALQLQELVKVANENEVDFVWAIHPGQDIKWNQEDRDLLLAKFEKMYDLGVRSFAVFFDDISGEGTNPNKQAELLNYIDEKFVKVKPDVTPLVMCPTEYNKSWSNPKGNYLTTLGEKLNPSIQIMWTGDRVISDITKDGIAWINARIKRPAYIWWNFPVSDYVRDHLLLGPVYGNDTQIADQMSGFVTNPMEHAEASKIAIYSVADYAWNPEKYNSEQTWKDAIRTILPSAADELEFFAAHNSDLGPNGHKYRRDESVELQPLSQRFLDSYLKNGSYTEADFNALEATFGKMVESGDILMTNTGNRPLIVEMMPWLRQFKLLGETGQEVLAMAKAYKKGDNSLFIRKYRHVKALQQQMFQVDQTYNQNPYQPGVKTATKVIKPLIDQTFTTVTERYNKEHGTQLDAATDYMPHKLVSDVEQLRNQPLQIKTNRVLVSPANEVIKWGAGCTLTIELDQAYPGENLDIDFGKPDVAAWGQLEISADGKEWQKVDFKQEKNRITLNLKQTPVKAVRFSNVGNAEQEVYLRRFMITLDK
T2 sequence (P07686 315-556 limits assumed): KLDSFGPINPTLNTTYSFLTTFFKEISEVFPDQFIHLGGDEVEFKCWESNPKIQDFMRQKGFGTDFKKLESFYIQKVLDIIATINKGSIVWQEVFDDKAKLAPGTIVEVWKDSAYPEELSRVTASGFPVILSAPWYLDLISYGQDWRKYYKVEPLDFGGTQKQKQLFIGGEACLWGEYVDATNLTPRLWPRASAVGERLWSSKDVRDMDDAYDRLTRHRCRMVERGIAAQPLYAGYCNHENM
T2 sequence (P07686 122-311 limits assumed): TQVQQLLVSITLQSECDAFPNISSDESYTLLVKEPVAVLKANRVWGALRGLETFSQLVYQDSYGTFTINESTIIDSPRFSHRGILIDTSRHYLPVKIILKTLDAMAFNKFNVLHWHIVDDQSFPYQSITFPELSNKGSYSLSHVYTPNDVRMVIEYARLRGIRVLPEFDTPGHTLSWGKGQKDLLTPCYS
T2 sequence (P07686 50-107 partner limits assumed): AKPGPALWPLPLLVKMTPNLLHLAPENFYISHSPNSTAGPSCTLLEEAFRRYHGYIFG

In the case of `CC(=O)N[C@H]1/C(=N/OC(=O)Nc2ccccc2)O[C@H](CO)[C@@H](O)[C@@H]1O` [PUGNAc, reference compound], the “level of O-GlcNAc moieties in treated cells” value (shortened to “level of O-GlcNAc moieties”) in assay [1] is recorded as “notably increased”. The “GM2 level in treated cells” value in the assay with BV2 cells is listed as “only modestly increased”.

On to `COc1ccc(CNCCCCCCCN2CC(NC(C)=O)C(O)C(O)C2CO)cc1` (stereo not drawn) [Compound 2], for which the inhibition constant Ki (in general, the dissociation constant of the complex between target and ligand, obtained from inhibition or displacement) amounted to 72.1 ± 0.88 µM in assay [2], 0.0012 ± 0.00023 µM at Human HEX B (Table 1), 0.0012 ± 0.00023 µM on Human HEX B (Table 2) and 102 ± 6.47 µM on Human O-GlcNAcase. Besides, the “Selectivity (KI O-GlcNAcase/KI HEX)” value is reported as 60,000 in assay [2] and 85,000 at Human O-GlcNAcase.

On to `CC(=O)NC1CN(CCCCCCCN=[N+]=[N-])C(CO)C(O)C1O` (stereo not drawn) [Compound 4], for which the inhibition constant Ki was determined as 95.7 ± 8.37 µM in assay [2], 1.7 ± 0.56 µM at Human HEX B (Table 1), 1.7 ± 0.56 µM on Human HEX B (Table 2) and 155 ± 9.87 µM on Human O-GlcNAcase. Besides, the entries for the “Selectivity (KI O-GlcNAcase/KI HEX)” value (in assay [2]; on Human O-GlcNAcase) were 56 and 91, respectively.

Regarding `CC(=O)NC1CN(CCCCCCCN)C(CO)C(O)C1O` [Compound 1, N-[1(7-Amino-heptyl)]-2-acetamido-1,2,5-trideoxy-1,5-imino-D-glucitol], the Ki is 75.3 ± 9.13 µM in assay [2], 0.0021 ± 0.00038 µM at Human HEX B (Table 1), 0.0021 ± 0.00038 µM on Human HEX B (Table 2) and 108 ± 9.17 µM at Human O-GlcNAcase. Moreover, the figures for the “Selectivity (KI O-GlcNAcase/KI HEX)” value (in assay [2]; on Human O-GlcNAcase) were 36,000 and 51,000, respectively. Further, in assay [1], the “level of O-GlcNAc moieties” value is “not significantly different than that in un-treated cells”.

As for `COc1ccc(CN(CCCCCCCN2CC(NC(C)=O)C(O)C(O)C2CO)Cc2ccc(OC)cc2)cc1` (stereo not drawn) [Compound 3], the inhibition constant (Ki) turned out to be 129 ± 2.55 µM in assay [2], 0.00069 ± 7.7e-05 µM on Human HEX B (Table 1), 0.00069 ± 7.7e-05 µM on Human HEX B (Table 2) and 176 ± 2.15 µM at Human O-GlcNAcase. In addition, the “Selectivity (KI O-GlcNAcase/KI HEX)” value in assay [2] is reported as 190,000; on Human O-GlcNAcase, 250,000. In addition, the “level of O-GlcNAc moieties” value in assay [1] was “not significantly different than that in un-treated cells”. For the same molecule, in the assay with BV2 cells, the “GM2 level in treated cells” value was “significantly increased”.

In the case of `CN(N=O)C(=O)N[C@@H]1[C@@H](O)[C@H](O)[C@@H](CO)O[C@@H]1O` [STZ, reference compound], in assay [1], the “level of O-GlcNAc moieties” value was “notably increased”.
